Reference: patent publication US9394305B2, “Substituted imidazo[1,2-a]pyridine compounds as tropomyosin receptor kinase a (TrkA) inhibitors” (Dr. Reddy's Laboratories Ltd., priority 2014, dated 2016)

target: T1, TrkA kinase (Homo sapiens, UniProt P04629); assay: In vitro TrkA inhibitory activity using TR-FRET assay; type: biochemical; details: 5 ng TrkA, 500 μM ATP, values given as bins, read-out: TrkA inhibition in-vitro IC50
T1 construct: purchased Upstate, USA
Experimental: Compounds were screened in the TR-FRET assay with TrkA kinase. 5 ng of TrkA [Upstate, USA] kinase was used for assay. The compound was incubated with the kinase for 30 minutes at 20-35° C. After the incubation, substrate mix [40 nM Ultra light poly GT (Perkin Elmer, USA) and 500 μM ATP] was added. The above reaction was stopped by the addition of 40 mM EDTA after 30 minutes. The Eu-labelled antiphospho-tyrosine antibody [Perkin Elmer, USA] was added at 0.5 nM and the fluorescence emission at 615 nm/665 nm [excitation at 340 nm] was measured. The compounds were initially screened at 100 nM, 1 μM and 10 μM concentrations. The potent compounds with >25% inhibition at 1 μM of TrkA were taken for the full dose response studies. The final DMSO concentration in the assay was […]. For IC50 determination, ⅓^rd serial dilution was made from the 20 mM DMSO stock solution. 2 μl of these were transferred to the test wells containing 20 μl reaction mixture [Total reaction volume 22 μl]. The fluorescence was measured in Perkin Elmer Wallac 1420 Multilabel Counter Victor 3. The IC50 was determined by fitting the dose response data to a sigmoidal curve fitting equation using GraphPad Prism software version 5.

T1 sequence (P04629 33-796): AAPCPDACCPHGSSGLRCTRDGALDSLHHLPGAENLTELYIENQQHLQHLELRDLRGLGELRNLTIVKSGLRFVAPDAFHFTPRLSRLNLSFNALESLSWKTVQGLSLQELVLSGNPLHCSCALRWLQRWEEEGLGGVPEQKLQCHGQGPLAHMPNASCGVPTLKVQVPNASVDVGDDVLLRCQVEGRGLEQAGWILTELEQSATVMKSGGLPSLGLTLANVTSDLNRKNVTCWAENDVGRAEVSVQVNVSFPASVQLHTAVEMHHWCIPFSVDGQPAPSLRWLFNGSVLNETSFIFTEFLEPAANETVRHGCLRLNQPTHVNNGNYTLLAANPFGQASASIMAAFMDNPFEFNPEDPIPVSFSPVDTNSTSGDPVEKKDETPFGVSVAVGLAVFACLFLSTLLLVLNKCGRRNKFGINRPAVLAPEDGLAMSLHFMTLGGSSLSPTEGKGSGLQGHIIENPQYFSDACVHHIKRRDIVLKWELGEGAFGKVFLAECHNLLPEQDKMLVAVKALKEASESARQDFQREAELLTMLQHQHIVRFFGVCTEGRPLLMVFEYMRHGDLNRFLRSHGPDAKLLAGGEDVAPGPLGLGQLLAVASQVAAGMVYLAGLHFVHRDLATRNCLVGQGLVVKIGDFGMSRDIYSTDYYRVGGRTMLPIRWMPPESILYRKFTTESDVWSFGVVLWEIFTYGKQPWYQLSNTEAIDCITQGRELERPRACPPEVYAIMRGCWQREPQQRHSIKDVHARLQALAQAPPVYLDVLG

SMILES | IC50 [nM]
CCCN(C)S(=O)(=O)NC(=O)c1cnc2ccc(N3CCC[C@@H]3c3cc(F)ccc3F)cn12 [Example 37, (R)-6-(2-(2,5-difluorophenyl)pyrrolidin-1-yl)-N-(N-methyl-N-propylsulfamoyl)imidazo[1,2-a]pyridine-3-carboxamide] | ≤ 50
COCCN(C)S(=O)(=O)NC(=O)c1cnc2ccc(N3CCC[C@@H]3c3cc(F)ccc3F)cn12 [Example 39, (R)-6-(2-(2,5-difluorophenyl)pyrrolidin-1-yl)-N-(N-(2-methoxyethyl)-N-methylsulfamoyl)imidazo[1,2-a]pyridine-3-carboxamide] | ≤ 50
CN(CC(C)(C)F)S(=O)(=O)NC(=O)c1cnc2ccc(N3CCC[C@@H]3c3cc(F)ccc3F)cn12 [Example 42, (R)-6-(2-(2,5-difluorophenyl)pyrrolidin-1-yl)-N-(N-(2-fluoro-2-methylpropyl)-N-methylsulfamoyl)imidazo[1,2-a] pyridine-3-carboxamide] | ≤ 50
CN(c1cnccn1)S(=O)(=O)NC(=O)c1cnc2ccc(N3CCC[C@@H]3c3cc(F)ccc3F)cn12 [Example 45, (R)-6-(2-(2,5-difluorophenyl)pyrrolidin-1-yl)-N-(N-methyl-N-(pyrazin-2-yl)sulfamoyl)imidazo[1,2-a]pyridine-3-carboxamide] | ≤ 50
O=C(NS(=O)(=O)c1ccc(-n2ccnc2)nc1)c1cnc2ccc(N3CCC[C@@H]3c3cc(F)ccc3F)cn12 [Example 46, (R)-N-((6-(1H-imidazol-1-yl)pyridin-3-yl)sulfonyl)-6-(2-(2,5-difluorophenyl)pyrrolidin-1-yl)imidazo[1,2-a]pyridine-3-carboxamide] | 50 to 100
CN(c1ccccn1)S(=O)(=O)NC(=O)c1cnc2ccc(N3CCC[C@@H]3c3cc(F)ccc3F)cn12 [Example 47, (R)-6-(2-(2,5-difluorophenyl)pyrrolidin-1-yl)-N-(N-methyl-N-(pyridin-2-yl)sulfamoyl)imidazo[1,2-a]pyridine-3-carboxamide] | ≤ 50
CN(c1nccs1)S(=O)(=O)NC(=O)c1cnc2ccc(N3CCC[C@@H]3c3cc(F)ccc3F)cn12 [Example 48, (R)-6-(2-(2,5-difluorophenyl)pyrrolidin-1-yl)-N-(N-methyl-N-(thiazol-2-yl)sulfamoyl)imidazo[1,2-a]pyridine-3-carboxamide] | ≤ 50
CC1(S(=O)(=O)NC(=O)c2cnc3ccc(N4CCCC4c4cc(F)cc5c4OCCO5)cn23)CC1 (stereo not drawn) [Example 50, 6-(2-(7-fluoro-2,3-dihydrobenzo[b][1,4]dioxin-5-yl)pyrrolidin-1-yl)-N-((1-methylcyclopropyl)sulfonyl)imidazo[1,2-a]pyridine-3-carboxamide] | 100 to 500
CCCN(C)S(=O)(=O)NC(=O)c1cnc2ccc(N3CCC[C@@H]3c3cc(F)ccc3OC)cn12 [Example 53] | 50 to 100
COc1ccc(F)cc1[C@H]1CCCN1c1ccc2ncc(C(=O)NS(=O)(=O)N(C)CCF)n2c1 [Example 56, (R)-6-(2-(5-fluoro-2-methoxyphenyl)pyrrolidin-1-yl)-N-(N-(2-fluoroethyl)-N-methylsulfamoyl)imidazo[1,2-a]pyridine-3-carboxamide] | ≤ 50
CC(C)(C)S(=O)(=O)NC(=O)c1cnc2ccc(N3C[C@@H](F)C[C@@H]3c3cc(F)ccc3O[C@@H]3CCOC3)cn12 [Example 59, N-(tert-butylsulfonyl)-6-((2R,4S)-4-fluoro-2-(5-fluoro-2-(((R)-tetrahydrofuran-3-yl)oxy)phenyl)pyrrolidin-1-yl)imidazo[1,2-a]pyridine-3-carboxamide] | ≤ 50

The remaining lines, values ahead:

IC50 [nM] | SMILES
≤ 50 | CCN(C)S(=O)(=O)NC(=O)c1cnc2ccc(N3CCC[C@@H]3c3cc(F)ccc3F)cn12 [Example 34, (R)-6-(2-(2,5-difluorophenyl)pyrrolidin-1-yl)-N-(N-ethyl-N-methylsulfamoyl)imidazo[1,2-a]pyridine-3-carboxamide]
50 to 100 | O=C(NS(=O)(=O)c1ccc(-n2cncn2)cc1)c1cnc2ccc(N3CCC[C@@H]3c3cc(F)ccc3F)cn12 [Example 35, (R)-N-((4-(1H-1,2,4-triazol-1-yl)phenyl)sulfonyl)-6-(2-(2,5-difluorophenyl)pyrrolidin-1-yl)imidazo[1,2-a]pyridine-3-carboxamide]
100 to 500 | O=C(NS(=O)(=O)c1ccc(N2CC[C@H](O)C2)cc1)c1cnc2ccc(N3CCC[C@@H]3c3cc(F)ccc3F)cn12 [Example 36, 6-((R)-2-(2,5-difluorophenyl)pyrrolidin-1-yl)-N-((4-((S)-3-hydroxypyrrolidin-1-yl)phenyl)sulfonyl)imidazo[1,2-a]pyridine-3-carboxamide]
≤ 50 | CN(CCF)S(=O)(=O)NC(=O)c1cnc2ccc(N3CCC[C@@H]3c3cc(F)ccc3F)cn12 [Example 38, (R)-6-(2-(2,5-difluorophenyl)pyrrolidin-1-yl)-N-(N-(2-fluoroethyl)-N-methylsulfamoyl)imidazo[1,2-a]pyridine-3-carboxamide]
50 to 100 | CCN(CCF)S(=O)(=O)NC(=O)c1cnc2ccc(N3CCC[C@@H]3c3cc(F)ccc3F)cn12 [Example 40, (R)-6-(2-(2,5-difluorophenyl)pyrrolidin-1-yl)-N-(N-ethyl-N-(2-fluoroethyl)sulfamoyl)imidazo[1,2-a]pyridine-3-carboxamide]
≤ 50 | CN(CC(F)(F)F)S(=O)(=O)NC(=O)c1cnc2ccc(N3CCC[C@@H]3c3cc(F)ccc3F)cn12 [Example 41, (R)-6-(2-(2,5-difluorophenyl)pyrrolidin-1-yl)-N-(N-methyl-N-(2,2,2-trifluoroethyl)sulfamoyl)imidazo[1,2-a]pyridine-3-carboxamide]
≤ 50 | CN(c1cccnc1)S(=O)(=O)NC(=O)c1cnc2ccc(N3CCC[C@@H]3c3cc(F)ccc3F)cn12 [Example 43, (R)-6-(2-(2,5-difluorophenyl)pyrrolidin-1-yl)-N-(N-methyl-N-(pyridin-3-yl)sulfamoyl)imidazo[1,2-a]pyridine-3-carboxamide]
50 to 100 | O=C(NS(=O)(=O)N(CC1CC1)c1cccnc1)c1cnc2ccc(N3CCC[C@@H]3c3cc(F)ccc3F)cn12 [Example 44, (R)-N-(N-(cyclopropylmethyl)-N-(pyridin-3-yl)sulfamoyl)-6-(2-(2,5-difluorophenyl)pyrrolidin-1-yl)imidazo[1,2-a]pyridine-3-carboxamide]
≤ 50 | CCN(C)S(=O)(=O)NC(=O)c1cnc2ccc(N3CCC[C@@H]3c3cc(F)ccc3OC)cn12 [Example 55, (R)-N-(N-ethyl-N-methylsulfamoyl)-6-(2-(5-fluoro-2-methoxyphenyl)pyrrolidin-1-yl)imidazo[1,2-a]pyridine-3-carboxamide]
≤ 50 | CCN(C)S(=O)(=O)NC(=O)c1cnc2ccc(N3C[C@@H](F)C[C@@H]3c3cc(F)ccc3OCCF)cn12 [Example 57, N-(N-ethyl-N-methylsulfamoyl)-6-((2R,4S)-4-fluoro-2-(5-fluoro-2-(2-fluoroethoxy)phenyl)pyrrolidin-1-yl)imidazo[1,2-a]pyridine-3-carboxamide]
≤ 50 | CC(C)(C)S(=O)(=O)NC(=O)c1cnc2ccc(N3C[C@@H](F)C[C@@H]3c3cc(F)ccc3OCCF)cn12 [Example 58, N-(tert-butylsulfonyl)-6-((2R,4S)-4-fluoro-2-(5-fluoro-2-(2-fluoroethoxy)phenyl)pyrrolidin-1-yl)imidazo[1,2-a] pyridine-3-carboxamide]
≤ 50 | CCN(C)S(=O)(=O)NC(=O)c1cnc2ccc(N3C[C@@H](F)C[C@@H]3c3cc(F)ccc3O[C@@H]3CCOC3)cn12 [Example 60, N-(N-ethyl-N-methylsulfamoyl)-6-((2R,4S)-4-fluoro-2-(5-fluoro-2-(((R)-tetrahydrofuran-3-yl)oxy)phenyl)pyrrolidin-1-yl)imidazo[1,2-a]pyridine-3-carboxamide]
≤ 50 | CN(CCF)S(=O)(=O)NC(=O)c1cnc2ccc(N3C[C@@H](F)C[C@@H]3c3cc(F)ccc3O[C@@H]3CCOC3)cn12 [Example 62, 6-((2R,4S)-4-fluoro-2-(5-fluoro-2-(((R)-tetrahydrofuran-3-yl)oxy)phenyl)pyrrolidin-1-yl)-N-(N-(2-fluoroethyl)-N-methylsulfamoyl)imidazo[1,2-a]pyridine-3-carboxamide]
50 to 100 | CCN(C)S(=O)(=O)NC(=O)c1cnc2ccc(N3C[C@@H](F)C[C@@H]3c3cc(F)cc4c3OCCO4)cn12 [Example 68, N-(N-ethyl-N-methylsulfamoyl)-6-((2R,4S)-4-fluoro-2-(7-fluoro-2,3-dihydrobenzo[b][1,4]dioxin-5-yl)pyrrolidin-1-yl)imidazo[1,2-a]pyridine-3-carboxamide]

same assay, conditions: 5 ng TrkA, 500 μM ATP, values given as bins, read-out: TrkA inhibitory activity in-vitro IC50

SMILES | IC50 [nM]
O=C(NS(=O)(=O)c1ccc(N2CC[C@H](O)C2)cc1)c1cnc2ccc(N3CCCCC3c3cc(F)ccc3F)cn12 (stereo partly drawn) [Example 49, 6-(2-(2,5-difluorophenyl)piperidin-1-yl)-N-((4-((S)-3-hydroxypyrrolidin-1-yl)phenyl)sulfonyl)imidazo[1,2-a]pyridine-3-carboxamide] | 1000 to 10000
O=C(NS(=O)(=O)c1ccc(N2CC[C@H](O)C2)nc1)c1cnc2ccc(N3CCCCC3c3cc(F)ccc3F)cn12 (stereo partly drawn) [Example 51, 6-(2-(2,5-difluorophenyl)piperidin-1-yl)-N-((6-((S)-3-hydroxypyrrolidin-1-yl)pyridin-3-yl)sulfonyl)imidazo[1,2-a]pyridine-3-carboxamide] | 1000 to 10000
